US20240026295A1, “USE OF COMPOUND FOR IMPROVING TRANSPLANTATION EFFICIENCY OF HUMAN HEMATOPOIETIC STEM CELLS” (EDIGENE (GUANGZHOU) INC., priority 2020, published 2024)
Counter-ions that a name gives are not always drawn.

Assays:
[1] = tested on: surface protein CD184 expression in CD34+HSPCs; assay: Preliminary screening: CD184 mean fluorescence intensity by flow cytometry; format: cell-based, human; settings: 16 hours treatment, three concentrations
Experimental: (§1) According to the counting results in Example 1, 5×10^4CD34+ cells were added to each well of a 24-well plate, and the cells were cultured with 1 ml of complete medium per well for 24 hours.
(§2) The next day, the compound was dissolved in DMSO and mixed, and then diluted with PBS to a specific concentration (see Table 3). An equal volume of 10 μl of the diluted compound per well was added to the cell culture medium, mixed well, and placed in an incubator for 16 hours.
(§3) On the third day, an antibody pre-mixed solution was prepared: a solution of PBS+0.5% BSA was pre-mixed with fluorescent antibody BV510 conjugated anti-human CD34 (Biolegend clone 581), FITC conjugated anti-human CD90 (Biolegend, clone 5E10) and APCCy7 conjugated anti-human CD45RA (Biolegend, clone HI100), 50 μl/ml of each antibody was added, and stored in the dark.
(§4) Cells were collected into centrifuge tubes, centrifuged at 400 g for 5 minutes. The supernatant was removed, added with 50 μl of antibody pre-mixed solution (containing 2.5 μl of each antibody) in each sample, resuspended and incubated at 4° C. for 20 minutes in the dark. The cells were washed with 1 ml of PBS added to each tube, centrifuged at 400 g for 5 minutes and resuspended with 50 μl of PBS+0.5% BSA solution. 2.5 μl of PE-conjugated anti-CD184 antibody (Biolegend, clone 12G5) was added to each sample, incubated at 37° C. for 30 minutes, washed, and stained with 7AAD to identify cell viability. Flow cytometry (Beckman Coulter CytoFLEX) was used to detect cell surface fluorescence, and the mean fluorescence intensity (MFI) and positive ratio of CD184 expression in HSPCs and LT-HSCs were analyzed, respectively. Among them, HSPCs are CD34+ cells, and LT-HSCs are CD34+CD90+CD45RA− cells.
(1) Preliminary screening of compounds: 139 compounds were used for preliminary screening, among which 89 compounds were screened in rounds 1-5, and 50 compounds were screened in rounds 6-9. During the in vitro culture of CD34+HSPCs, they were treated for 16 hours by adding three concentrations of compounds to the complete medium. Then the mean fluorescence intensity of surface protein CD184 expression was detected by flow cytometry. 1.

[2] = tested on: surface protein CD184 expression in CD34+HSPCs; assay: Secondary screening: CD184 mean fluorescence intensity, ratio to control group; format: cell-based, human; settings: high concentration, 16 hours treatment, FIG. 2
Experimental: as §1, §2, §3, §4
(2) Secondary screening of compounds: the 13 compounds obtained from the preliminary screening were further verified using three concentrations of high, medium and low, with three replicates for each concentration. After 16 hours of treatment with the above-mentioned compounds, the average fluorescence intensity of surface protein CD184 expression was detected by flow cytometry. 2. Wherein, the data in the figure are the ratio of the mean CD184 fluorescence intensity of each group to the control group (Mock). (M344 is the positive control group; Mock is the negative control group untreated during culture.)

[3] = tested on: NPG (NOD-scid Il2rg−/−) immunodeficient mice; assay: Transplantation of treated human CD34+HSPCs into irradiated NPG mice; format: in vivo, mouse; settings: 17 weeks after transplantation; for differentiation of treated HSPCs in bone marrow, spleen and peripheral blood: FIG. 5B to 5D; for transplantation efficiency of cells in the bone marrow of NPG mice (hCD45+/(hCD45+ + mCD45+)×100%): HSPCs treated ex vivo, Mock group 64.7%
Excerpt: The transplantation efficiency of hematopoietic stem cells refers to the ability of hematopoietic stem cells from human donor to effectively migrate to the recipient's bone marrow after intravenous injection into the recipient, maintain growth in the bone marrow microenvironment, and play a role in repopulating of the hematopoietic system. To verify the transplantation efficiency of hematopoietic stem cells in the experiment, human hematopoietic stem cells are transplanted into an immune-deficient mouse model, the blood and immune organs of the recipient mice are detected by flow cytometry, and the content of human donor cells (hCD45 positive cell ratio) is analyzed.
Human CD34+HSPCs treated with Colchicine, Vinblastine sulfate or Lexibulin for a short time, or those in the control group were transplanted into NPG (NOD-scid Il2rg−/−) immunodeficient mice irradiated with 1.0 Gy, 8 mice in each group. 17 weeks after transplantation, cell transplantation efficiency in mouse bone marrow, and distribution proportion of human T cells labeled with human CD3, CD4 and CD8 antibodies, myeloid cells labeled with human CD33 antibody, B cells labeled with CD19 antibody, NK cells labeled with human CD56 antibody, and hematopoietic stem and progenitor cells labeled with human CD34 antibody in bone marrow, peripheral blood, and spleen were detected. The results are shown in FIG. 5A to FIG. 5D, where the transplantation efficiency=hCD45^+proportion/(hCD45^+proportion+mCD45^+proportion)×100%

COC(=O)Nc1nc2ccc(C(=O)c3cccs3)cc2[nH]1 [Nocodazole]
expression of CD184 in CD34+HSPCs (mean fluorescence intensity) [1]: can enhance the expression of CD184

C/C(=C\c1ccc(C(=O)O)cc1)c1ccc2c(c1)C(C)(C)CCC2(C)C [TTNPB]
expression of CD184 in CD34+HSPCs (mean fluorescence intensity) [1]: can enhance the expression of CD184

CCC[C@H](Nc1nc(-c2ccc(NC(=O)NCC)c(OC)c2)ncc1C)c1cccnc1 [Lexibulin]
expression of CD184 in CD34+HSPCs (mean fluorescence intensity) [1]: can enhance the expression of CD184
expression of CD184 relative to positive control M344 [2]: ~2 times
differentiation of treated HSPCs in bone marrow, spleen and peripheral blood [3]: can differentiate into T cells, myeloid cells, B cells and NK cells
transplantation efficiency of cells in the bone marrow of NPG mice (hCD45+/(hCD45+ + mCD45+)×100%) [3]: 82.46%

Cc1c[nH]c(-c2cnc(NCCNc3ccc(C#N)cn3)nc2-c2ccc(Cl)cc2Cl)n1 [CHIR99021]
expression of CD184 in CD34+HSPCs (mean fluorescence intensity) [1]: can enhance the expression of CD184

O=C(Nc1cccc2cccnc12)c1ccc(N2C(=O)[C@@H]3[C@H](C2=O)[C@@H]2C=C[C@H]3C2)cc1 [IWR-1-endo]
expression of CD184 in CD34+HSPCs (mean fluorescence intensity) [1]: can enhance the expression of CD184

c1cc(-c2cnn3cc(-c4ccc(N5CCNCC5)cc4)cnc23)c2cccnc2c1 [LND-212854]
expression of CD184 in CD34+HSPCs (mean fluorescence intensity) [1]: can enhance the expression of CD184

O=C(Nc1ccc2[nH]nc(-c3ccncc3)c2c1)[C@@H]1CCN(CC(=O)N2CCN(c3ccc(-c4ncccn4)cc3)CC2)C1 [SCH772984]
expression of CD184 in CD34+HSPCs (mean fluorescence intensity) [1]: can enhance the expression of CD184

CC[C@]1(O)C[C@@H]2CN(CCc3c([nH]c4ccccc34)[C@@](C(=O)OC)(c3cc4c(cc3OC)N(C)[C@H]3[C@@](O)(C(=O)OC)[C@H](OC(C)=O)[C@]5(CC)C=CCN6CC[C@]43[C@@H]65)C2)C1 [Vinblastine sulfate]
expression of CD184 in CD34+HSPCs (mean fluorescence intensity) [1]: can enhance the expression of CD184
expression of CD184 relative to positive control M344 [2]: ~2 times
differentiation of treated HSPCs in bone marrow, spleen and peripheral blood [3]: can differentiate into T cells, myeloid cells, B cells and NK cells
transplantation efficiency of cells in the bone marrow of NPG mice (hCD45+/(hCD45+ + mCD45+)×100%) [3]: 80.73%

N#Cc1c(NC(=O)c2cccc3ccccc23)sc2c1CCCC2 [JNK-inhibitor IX]
expression of CD184 in CD34+HSPCs (mean fluorescence intensity) [1]: can enhance the expression of CD184

COC[C@H]1Cn2cc(-c3nc(Nc4ccnn4C)ncc3C)nc2C(=O)N1Cc1ccc(F)c(F)c1 [AZD0364]
expression of CD184 in CD34+HSPCs (mean fluorescence intensity) [1]: can enhance the expression of CD184

COc1cc2c(c(OC)c1OC)-c1ccc(OC)c(=O)cc1[C@@H](NC(C)=O)CC2 [Colchicine]
expression of CD184 in CD34+HSPCs (mean fluorescence intensity) [1]: can enhance the expression of CD184
expression of CD184 relative to negative control (Mock) [2]: 2.6 times
expression of CD184 relative to positive control M344 [2]: comparable effects to M344
differentiation of treated HSPCs in bone marrow, spleen and peripheral blood [3]: can differentiate into T cells, myeloid cells, B cells and NK cells
transplantation efficiency of cells in the bone marrow of NPG mice (hCD45+/(hCD45+ + mCD45+)×100%) [3]: 65.84%

O=C(NC[C@H](O)CO)c1ccncc1Nc1ccc(I)cc1F [Pimasertib]
expression of CD184 in CD34+HSPCs (mean fluorescence intensity) [1]: can enhance the expression of CD184
